{"source": "patent US4737518A", "about": "“Lipid derivatives, their production and use” (Takeda Chemical Industries, Ltd., priority 1984, dated 1988)", "key": {"[1]": {"tested_on": "rabbit platelet aggregation by PAF", "experiment": "Inhibitory activity on rabbit platelet aggregation by PAF", "assay_type": "cell-based", "details": "Oryctolagus cuniculus, PAF 1×10^-8 M, read-out: rate of inhibition of rabbit platelet aggregation by PAF"}, "PAF-induced hypotension": {"tested_on": "PAF-induced hypotension", "experiment": "Inhibitory activity against PAF-induced hypotension in rats", "assay_type": "in vivo, rat (male Spraque-Dawley)", "details": "PAF 0.3 μg/kg i.v.", "method": "Inhibitory activity against PAF-induced hypotension in rats\nMale Spraque-Dawley rats, with a body weight of about 400 g, were used under pentobarbital sodium (50 mg/kg, intravenous administration) anesthesia. A cannula was inserted into the femoral artery and secured in position for measurement of blood pressure and another cannula into the femoral vein for administration of a solution of the drug. The blood pressure was measured via a pressure transducer and recorded on a polygraph. First, 0.3 μg/kg of PAF was administered intravenously and the hypotensive response was recorded.\nThe inhibitory activity against PAF-induced hypotension was estimated from the rate of PAF-induced hypotensive response (Δ mmHg) after the drug administration to hypotensive response (Δ mmHg) by PAF before the drug administration."}, "[2]": {"tested_on": "endotoxin-induced hypotension", "experiment": "Anti-endotoxin shock activity in rats", "assay_type": "in vivo, rat (male Spraque-Dawley)", "details": "endotoxin 15 mg/kg i.v., one minute after", "method": "Anti-endotoxin shock activity in rats\nMale Spraque-Dawley rats weighting about 400 g were used under pentobarbital sodium (50 mg/kg, i.v.) anesthesia. A cannula was inserted into the femoral artery and secured in position for measurement of blood pressure and another cannula into femoral vein for administration of a solution of the drug. The blood pressure was measured via a pressure transducer and recorded on a polygraph. First, a suspension of endotoxin (15 mg/kg) [Lipopolysaccharide W.E. coli 0111: B4, Wako Pure Chemical] in physiological saline was administered intravenously and the maximum hypotensive response (Δ mmHg) occurring 3 to 5 minutes after administration was recorded. Simultaneously, the compound of Example 108 was dissolved in physiological saline and administered intravenously in a dose of 1 to 100 μg/kg. The restortion rate against endotoxin-induced hypotension one minute after the administration was calculated. The presence of preventive activity against endotoxin shock was judged from the strength of the restoration rate."}, "HL-60 cells": {"tested_on": "HL-60 cells", "experiment": "Effect on inducing differentiation of HL-60 cells (NBT-positive cells)", "assay_type": "cell-based, human", "details": "6 days", "method": "Assay of the effects on inducing differentiation of HL-60 cells (human promyelocytic leukemia cells) and Neuro-2a cells (mouse neuroblastoma cells): RPMI-1640 medium (Flow Laboratories, Inc.) supplemented with 20% fetal calf serum (M.A. […] The culture was incubated at 37° C. in a 5% CO2 incubator for 6 days. […] The reaction was allowed to proceed at 37° C. for 20 minutes. The reaction was stopped by cooling with ice, and the cells were washed by means of centrifugation, followed by collecting 3-5×10^4 cells and by subjecting to centrifugation using Cytospin centrifuge to prepare a cell smear, which was fixed with methanol and stained with Kernechtrot solution. On each cell smear, the percentage of NBT-positive cells relative to live cells, […] by examination of a minimum of 200 cells, was expressed as the differentiation extent."}, "Neuro-2a cells [3]": {"tested_on": "Neuro-2a cells", "experiment": "Effect on morphological differentiation of neuroblastoma Neuro-2a", "assay_type": "cell-based, mouse", "details": "three days, untreated 22", "method": "Assay of the effects on inducing differentiation of HL-60 cells (human promyelocytic leukemia cells) and Neuro-2a cells (mouse neuroblastoma cells):\nFor Neuor-2a cells, 1×10^4 cells were inoculated into GIT medium (Daigo-eiyo Chemicals, Japan) and one day later various amounts of the compound of Example 108 were added. The cells were incubated for following three days at 37° C. in a 5% CO2 incubator.\nThe percentage of cells that were morphologically similar to neurocyte with extended neurite was determined by microscopical examination of cells more than 200."}, "KB cells": {"tested_on": "KB cells", "experiment": "Cell growth inhibition assay, KB", "assay_type": "cell-based", "details": "Homo sapiens, 72 h, concentration giving T/C 50%, day 4, read-out: ED50 (the source's name)", "method": "(§1) 2×10^4 cells per well charged with GIT medium for KB cells (human epidermoid carcinoma cells), A549 cells (human lung carcinoma cells) and HSC-1 cells (human skin squamous carcinoma cells), and 4×10^4 cells for B16-BL6 cells (mouse melanoma cells) and 5×10^3 cells for Neuro-2a cells were inoculated. On day 1 (next day), various concentrations of the compound of Example 108 were added. On day 4, cells were suspended in a solution of trypsin-EDTA and the number of cells was counted. The ratio of cell number in treated culture to that in control culture was estimated as T/C (%) value. The concentration of the compound of Example 108 giving a value of T/C, 50% was defined as ED50."}, "B16-BL6 cells": {"tested_on": "B16-BL6 cells", "experiment": "Cell growth inhibition assay, B16-BL6", "assay_type": "cell-based", "details": "Mus musculus, 72 h, concentration giving T/C 50%, day 4, read-out: ED50 (the source's name)", "method": "as §1"}, "HSC-1 cells": {"tested_on": "HSC-1 cells", "experiment": "Cell growth inhibition assay, HSC-1", "assay_type": "cell-based", "details": "Homo sapiens, 72 h, concentration giving T/C 50%, day 4, read-out: ED50 (the source's name)", "method": "as §1"}, "A549 cells": {"tested_on": "A549 cells", "experiment": "Cell growth inhibition assay, A549", "assay_type": "cell-based", "details": "Homo sapiens, 72 h, concentration giving T/C 50%, day 4, read-out: ED50 (the source's name)", "method": "as §1"}, "Neuro-2a cells [4]": {"tested_on": "Neuro-2a cells", "experiment": "Cell growth inhibition assay, Neuro-2a", "assay_type": "cell-based", "details": "Mus musculus, N2a, 72 h, concentration giving T/C 50%, day 4, read-out: ED50 (the source's name)", "method": "as §1"}}, "note": "Several values for one entry are separate records, joined by “and”; a condition that tells them apart may be missing. Equal entries are not always repeated."}
{"compound": "CCCCCCCCCCCCCCCCCCNC(=O)OCC(COC(=O)N(Cc1cccc[n+]1CC)C(C)=O)OC", "note": "(stereo not drawn) [Example 108, 1-Ethyl-2-[N-acetyl-N-(3-octadecylcarbamoyloxy-2-methoxypropyloxy)carbonyl]aminomethylpyridinium chloride]", "values": [{"measurement": "inhibition at 30 µM", "setting": "[1]; test drug 3 × 10^-5 M", "value": 100, "unit": "%"}, {"measurement": "inhibition at 3 µM", "setting": "[1]; test drug 3 × 10^-6 M", "value": 100, "unit": "%"}, {"measurement": "inhibition at 0.3 µM", "setting": "[1]; test drug 3 × 10^-7 M", "value": 100, "unit": "%"}, {"measurement": "Restoration rate", "setting": "PAF-induced hypotension; 0.1 mg/kg i.v., after 5 min", "value": 100, "unit": "%"}, {"measurement": "Restoration rate", "setting": "PAF-induced hypotension; 0.1 mg/kg i.v., after 60 min", "value": 55, "unit": "%"}, {"measurement": "Restoration rate", "setting": "PAF-induced hypotension; 1 mg/kg i.v., after 5 min", "value": 100, "unit": "%"}, {"measurement": "Restoration rate", "setting": "PAF-induced hypotension; 1 mg/kg i.v., after 60 min", "value": 100, "unit": "%"}, {"measurement": "Restoration rate against endotoxin-induced hypotension", "setting": "[2]; 0.01 mg/kg i.v., 2 rats, single values", "value": "100% and 59%"}, {"measurement": "Restoration rate against endotoxin-induced hypotension", "setting": "[2]; 0.1 mg/kg i.v., 3 rats, mean ± standard error", "value": "97 ± 1", "unit": "%"}, {"measurement": "Maximum differentiation extent: Optimal conc.", "setting": "HL-60 cells", "value": 0.63, "unit": "µg/mL"}, {"measurement": "Emax", "setting": "HL-60 cells; Homo sapiens, HL-60, 144 h, at optimal conc., NBT-positive relative to live cells, read-out: Maximum differentiation extent: Differentiation", "value": 83, "unit": "%"}, {"measurement": "% of cells with neurite", "setting": "Neuro-2a cells [3]; 2.5 μg/ml", "value": 26, "unit": "%"}, {"measurement": "% of cells with neurite", "setting": "Neuro-2a cells [3]; 5 μg/ml", "value": 33, "unit": "%"}, {"measurement": "% of cells with neurite", "setting": "Neuro-2a cells [3]; 10 μg/ml", "value": 35, "unit": "%"}, {"measurement": "% of cells with neurite", "setting": "Neuro-2a cells [3]; 15 μg/ml", "value": 44, "unit": "%"}, {"measurement": "% of cells with neurite", "setting": "Neuro-2a cells [3]; 20 μg/ml", "value": 74, "unit": "%"}, {"measurement": "IC50", "setting": "KB cells", "value": 0.16, "unit": "µg/mL"}, {"measurement": "IC50", "setting": "B16-BL6 cells", "value": 2.5, "unit": "µg/mL"}, {"measurement": "IC50", "setting": "HSC-1 cells", "value": 0.63, "unit": "µg/mL"}, {"measurement": "IC50", "setting": "A549 cells", "value": 0.63, "unit": "µg/mL"}, {"measurement": "IC50", "setting": "Neuro-2a cells [4]", "value": 5, "unit": "µg/mL"}]}
